The values that follow come from patent publication US20230203060A1 (GENFLEET THERAPEUTICS (SHANGHAI) INC., priority 2020, published 2023).

The target of assay [1] is T1, KRAS G12C (Homo sapiens, UniProt P01116, G12C).
T1 construct: purchased Reactionbiology
Description: KRAS G12C NEA-HTRF experiment (SOS1-catalyzed displacement of GDP by GTP). Format: biochemical. An outline of the steps:
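His-tagged KRAS G12C preloaded with DY647-GDP was preincubated 15 min at 20 °C with compound, then exchanged with SOS1 (0.2 μM working solution) and GTP (200 μM working solution) for 2 h at 20 °C in the dark. HTRF 665/615 nm ratio with anti-His-Tb was normalised to T0 and no-compound controls; IC50 by four-parameter fit.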
On the technique in general: Time-resolved FRET reads energy transfer from a long-lived donor to a nearby acceptor.

The test system of assay [2] is phosphorylated ERK downstream of KRAS G12C in MIA PaCa2 cells. Description: Cell p-ERK detection experiment (HTRF) in MIA PaCa2. Format: cell-based, human. The note with it: Homo sapiens, MIA PaCa-2, 2 h, MIA PaCa2 cells, 2 hours with compound, Advance ERK phospho-T202/Y204 HTRF kit; read-out: p-ERK IC50. The source says:
Raw materials and instruments: MIA PaCa-2 purchased from ATCC; article number: CRL-1420; batch number: 63143594; DMEM purchased from Gibco; article number: 11995-065; batch number: 2186878; FBS purchased from Gibco; article number: 10099-141; batch number: 2109290CP; Horse serum purchased from Gibco; article number: 16050-122; batch number: 1818976; Trypsin-EDTA purchased from Gibco; article number: 25200-072; batch number: 2085552; PS purchased from Gibco; article number: 15140-122; batch number: 2145451; DMSO purchased from VWR AMRESCO; article number: 0231-500ML; batch number: 0457C072; 96-well cell culture plate purchased from Corning; article number: 3599; batch number: 22718601; white opaque 96-well plate purchased from Cisbio; article number: 66PL96025; batch number: N°05; Advance ERK phospho-T202/Y204 kit purchased from Cisbio; article number: 64AERPEH; batch number: 11D; microplate reader purchased from PerkinElmer; model: Envision MLD2105-0020; equipment number 1050369.
MIA PaCa2 was a KRAS G12C mutant human pancreatic cancer cell line cultured in 10% FBS+2.5% Horse serum DMEM culture medium. Cells at logarithmic growth stage were taken, digested with trypsin-EDTA, then collected and counted, and 2.5E4 cells were inoculated in a 96-well cell culture plate and cultured overnight. A 3.16-fold gradient concentration stock solution of 1000× compound was prepared with DMSO, and diluted 200-fold to 5× compound stock solution with culture medium. On the second day after cell inoculation, 5× compound stock solution was added to each cell culture well, with a final concentration of 1× and a DMSO content of 0.1%. DMSO was used as experimental control (control). After the compound was added and cultured for two hours, the residual culture medium was removed. 50 μL of cell lysate (from Advance ERK phospho-T202/Y204 kit, the same below) was added to each well, mixed well and incubated for 30 minutes, and then 16 μL of the mixed solution was transferred to a white opaque 96-well plate, and 16 μL of cell lysate was added to the blank wells. After the transfer was completed, 4 μL of p-ERK HTRF antibody (from Advance ERK phospho-T202/Y204 kit) mixture was added to each well, incubated for 4 hours, and the fluorescence value was read with the microplate reader. The inhibition rate of the compound IR (%)=(RLU control -RLU compound)/(RLU control-RLU blank)×100% was calculated. The gradient dilution concentration of the compound and the corresponding cell proliferation inhibition rate were fitted by Prism 8 four-parameter method, and the IC50 value was calculated. The compounds prepared in the above embodiments of the present disclosure have inhibitory activity of 0.0001 μM to 1 μM on the phosphorylated ERK level downstream of the cell channel of KRAS G12C protein mutant; some compounds have inhibitory activity of 0.001 μM to 1 μM or 0.001 μM to 0.5 μM on phosphorylated ERK level downstream of cell channel of KRAS G12C protein mutant.

Structures are written as SMILES. Counter-ions that a name gives are not always drawn.

T1 sequence (P01116 1-188 isoform P01116-2 G12C): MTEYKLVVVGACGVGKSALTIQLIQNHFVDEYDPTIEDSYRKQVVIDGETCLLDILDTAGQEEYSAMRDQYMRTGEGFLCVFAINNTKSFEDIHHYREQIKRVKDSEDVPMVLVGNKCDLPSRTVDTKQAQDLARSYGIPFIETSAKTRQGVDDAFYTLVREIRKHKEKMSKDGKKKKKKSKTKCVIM

Take `C=CC(=O)N1CCN2C(=O)c3c(N4CC[C@@H]5C[C@@H]54)nc(-c4c(O)cccc4F)c(Cl)c3OC[C@H]2C1` (single isomer, unassigned) [Z39-2]: the values for the IC50 in assay [1] and in assay [2] were 66 nM and 88 nM, respectively.
As for `C=CC(=O)N1CCN2C(=O)c3c(N4C[C@H](O)[C@H]4C)nc(-c4c(O)cccc4F)c(Cl)c3OC[C@H]2C1` (single isomer, unassigned) [Z102-4], the IC50 – broadly, the concentration at which inhibition is half-maximal – was 103 nM in assay [1] and 134 nM in assay [2].
Consider `C=CC(=O)N1CCN2C(=O)c3c(N4CCN(C5COC5)C[C@@H]4C)nc(-c4c(O)cccc4F)c(Cl)c3OC[C@H]2C1` (single isomer, unassigned) [Z239-1], for which, in assay [1], the IC50 came to 124 nM.
With `C=CC(=O)N1CCN2C(=O)c3c(N4C[C@@H](CO)CC4(C)C)nc(-c4c(O)cccc4F)c(Cl)c3OC[C@H]2C1` (single isomer, unassigned) [Z240-1], the IC50 was determined as 11 nM in assay [1] and 19 nM in assay [2].
As to `C=CC(=O)N1CCN2C(=O)c3c(N4C[C@H](CO)CC4(C)C)nc(-c4c(O)cccc4F)c(Cl)c3OC[C@H]2C1` (single isomer, unassigned) [Z240-2], the results for the IC50 in assay [1] and in assay [2] were 11 nM and 20 nM, respectively.
For `C=CC(=O)N1CCN2C(=O)c3c(N4CC[C@H](OC)C4(C)C)nc(-c4c(O)cccc4F)c(Cl)c3OC[C@H]2C1` (single isomer, unassigned) [Z241a-1], in that order: 13 nM and 33 nM.
In the case of `C=CC(=O)N1CCN2C(=O)c3c(N4CC[C@@H](OC)C4(C)C)nc(-c4c(O)cccc4F)c(Cl)c3OC[C@H]2C1` (single isomer, unassigned) [Z241a-2], the IC50 in assay [1] stood at 5 nM; in assay [2], 9 nM.
Turning to `C=CC(=O)N1CCN2C(=O)c3c(N4C[C@@](C)(O)CC4(C)C)nc(-c4c(O)cccc4F)c(Cl)c3OC[C@H]2C1` (single isomer, unassigned) [Z243-1], the figures for the IC50 in assay [1] and in assay [2] were 7 nM and 8 nM, respectively.
With `C=CC(=O)N1CCN2C(=O)c3c(N4C[C@](C)(O)CC4(C)C)nc(-c4c(O)cccc4F)c(Cl)c3OC[C@H]2C1` (single isomer, unassigned) [Z243-2], the IC50 was 76 nM in assay [1] and 108 nM in assay [2].
For `C=CC(=O)N1CCN2C(=O)c3c(N4C[C@@H](OC)CC4(C)C)nc(-c4c(O)cccc4F)c(Cl)c3OC[C@H]2C1` (single isomer, unassigned) [Z244-1] the same measures were 26 nM and 31 nM.
For `C=CC(=O)N1CCN2C(=O)c3c(N4C[C@H](OC)CC4(C)C)nc(-c4c(O)cccc4F)c(Cl)c3OC[C@H]2C1` (single isomer, unassigned) [Z244-2], in that order: 5 nM and 5 nM.
For `C=CC(=O)N1CCN2C(=O)c3c(N4C[C@@H](O)CC4(C)C)nc(-c4c(O)cccc4F)c(F)c3OC[C@H]2C1` (single isomer, unassigned) [Z256-1], in that order: 26 nM and 20 nM.
With `C=CC(=O)N1CCN2C(=O)c3c(N4C[C@@H](OC)CC4(C)C)nc(-c4c(O)cccc4F)c(F)c3OC[C@H]2C1` (single isomer, unassigned) [Z256a-1], the IC50 in assay [1] was found to be 41 nM; in assay [2], 42 nM.
For `C=CC(=O)N1CCN2C(=O)c3c(N4C[C@H](OC)CC4(C)C)nc(-c4c(O)cccc4F)c(F)c3OC[C@H]2C1` (single isomer, unassigned) [Z256a-2] the same measures were 18 nM and 17 nM.
For `C=CC(=O)N1CCN2C(=O)c3c(N4C[C@@](C)(O)CC4(C)C)nc(-c4c(O)cccc4F)c(F)c3OC[C@H]2C1` (single isomer, unassigned) [Z256b-1], in that order: 33 nM and 43 nM.
`C=CC(=O)N1CCN2C(=O)c3c(N4Cc5cn(C)nc5[C@H]4C)nc(-c4c(O)cccc4F)c(Cl)c3OC[C@H]2C1` (single isomer, unassigned) [Z291-1S, trifluoroacetate]: the values for the IC50 in assay [1] and in assay [2] were 76 nM and 89 nM, respectively.
For `C=CC(=O)N1CCN2C(=O)c3c(N4CC(N(C)CCOC)CC4(C)C)nc(-c4c(O)cccc4F)c(Cl)c3OCC2C1` (single isomer, unassigned) [Z296-1] the same measures were 7 nM and 8 nM.
Take `C=CC(=O)N1CCN2C(=O)c3c(N4C[C@H](N(C)CCOC)CC4(C)C)nc(-c4c(O)cccc4F)c(Cl)c3OC[C@H]2C1` (single isomer, unassigned) [Z296-2]: the IC50 in assay [1] worked out at 39 nM; in assay [2] it was 32 nM.
As for `C=CC(=O)N1CCN2C(=O)c3c(N4C[C@H](N5CCOCC5)CC4(C)C)nc(-c4c(O)cccc4F)c(Cl)c3OC[C@H]2C1` (single isomer, unassigned) [Z297-1], the IC50 in assay [1] was found to be 19 nM; in assay [2], 11 nM.
In the case of `C=CC(=O)N1CCN2C(=O)c3c(N4C[C@@H](N5CCOCC5)CC4(C)C)nc(-c4c(O)cccc4F)c(Cl)c3OC[C@H]2C1` (single isomer, unassigned) [Z297-2], the IC50 in assay [1] was determined as 8 nM; in assay [2], 18 nM.
For `C=CC(=O)N1CCN2C(=O)c3c(N4CCN(C)[C@H](C)[C@@H]4C)nc(-c4c(O)cccc4F)c(Cl)c3OC[C@H]2C1` (single isomer, unassigned) [Z308a-1], in that order: 58 nM and 71 nM.
For `C=CC(=O)N1CCN2C(=O)c3c(N4C[C@@H](N(C)C)CC4(C)C)nc(-c4c(O)cccc4F)c(Cl)c3OC[C@H]2C1` (single isomer, unassigned) [Z324-1], in that order: 16 nM and 15 nM.
For `C=CC(=O)N1CCN2C(=O)c3c(N4C[C@H](N(C)C)CC4(C)C)nc(-c4c(O)cccc4F)c(Cl)c3OC[C@H]2C1` (single isomer, unassigned) [Z324-2] the same measures were 61 nM and 34 nM.
Consider `C=CC(=O)N1CCN2C(=O)c3c(N4C[C@H](O)CC4(C)C)nc(-c4ccccc4F)c(Cl)c3OC[C@H]2C1` (single isomer, unassigned) [Z325-2], for which the half-maximal inhibitory concentration (IC50) in assay [1] is 35 nM; in assay [2], 61 nM.
Turning to `C=CC(=O)N1CCN2C(=O)c3c(N4CCO[C@](C)(CO)C4)nc(-c4c(O)cccc4F)c(Cl)c3OC[C@H]2C1` (single isomer, unassigned) [Z333-1], the IC50 in assay [1] was found to be 191 nM.
Same read-out and setting: to `C=CC(=O)N1CCN2C(=O)c3c(N4C[C@H](O)CC4(C)C)nc(-c4c(O)ccc(Cl)c4F)c(F)c3OC[C@H]2C1` (single isomer, unassigned) [Z340-2] belongs 98 nM.
With `C=CC(=O)N1CCN2C(=O)c3c(Nc4c(C(C)C)ncnc4C(C)C)nc(-c4c(O)cccc4F)c(Cl)c3OC[C@H]2C1` [Z15, (6aR)-8-acryloyl-4-chloro-1-((4,6-diisopropylpyrimidin-5-yl)amino)-3-(2-fluoro-6-hydroxyphenyl)-6,6a,7,8,9,10-hexahydro-12H-pyrazino[2,1-c]pyrido[3,4-f][1,4]oxazepin-12-one], in assay [2], the half-inhibitory concentration (IC50) was found to be 65 nM.
The same measure, in the same setting: to `C=CC(=O)N1CCN2C(=O)c3c(N(C)c4c(C(C)C)ncnc4C(C)C)nc(-c4c(O)cccc4F)c(Cl)c3OC[C@H]2C1` [Z20, (6aR)-8-acryloyl-4-chloro-1-((4,6-diisopropylpyrimidin-5-yl)(methyl)amino)-3-(2-fluoro-6-hydroxyphenyl)-6,6a,7,8,9,10-hexahydro-12H-pyrazino[2,1-c]pyrido[3,4-f][1,4]oxazepin-12-one] belongs 86 nM; to `C=CC(=O)N1CCN2C(=O)c3c(N4CCC(C)(C)C4)nc(-c4c(O)cccc4F)c(Cl)c3OC[C@H]2C1` [Z21, (6aR)-8-acryloyl-4-chloro-1-(3,3-dimethylpyrrolidin-1-yl)-3-(2-fluoro-6-hydroxyphenyl)-6,6a,7,8,9,10-hexahydro-12H-pyrazino[2,1-c]pyrido[3,4-f][1,4]oxazepin-12-one], 325 nM.
